From PubChem BioAssay (NCI)
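Grown in 96-well plates, cells were treated for 48 hours with each compound at five concentrations. Insufficient inhibition: endpoint recorded as highest concentration tested. At the GI50, growth is halved. TGI marks complete inhibition of growth.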

Assays:
Assay in all cases: NCI tumour cell line growth inhibition, 48 h
K-562 leukemia = test system: K-562 leukemia
NCI-H522 lung = test system: NCI-H522 lung
OVCAR-8 ovarian = test system: OVCAR-8 ovarian
T-47D breast = test system: T-47D breast
MCF7 breast = test system: MCF7 breast
NCI-H23 lung = test system: NCI-H23 lung
DU-145 prostate = test system: DU-145 prostate
MALME-3M melanoma = test system: MALME-3M melanoma
HOP-92 NSCLC = test system: HOP-92 NSCLC
MDA-MB-231 breast = test system: MDA-MB-231 breast
HL-60(TB) leukemia = test system: HL-60(TB) leukemia
CCRF-CEM leukemia = test system: CCRF-CEM leukemia
LOX IMVI melanoma = test system: LOX IMVI melanoma
SR leukemia = test system: SR leukemia
SK-MEL-2 melanoma = test system: SK-MEL-2 melanoma
M14 melanoma = test system: M14 melanoma
TK-10 renal = test system: TK-10 renal
SW-620 colon = test system: SW-620 colon
A498 renal = test system: A498 renal
HCT-116 colon = test system: HCT-116 colon
SF-268 CNS = test system: SF-268 CNS
786-0 renal = test system: 786-0 renal
NCI/ADR-RES ovarian = test system: NCI/ADR-RES ovarian
HCT-15 colon = test system: HCT-15 colon
HT29 colon = test system: HT29 colon
HCC-2998 colon = test system: HCC-2998 colon
OVCAR-5 ovarian = test system: OVCAR-5 ovarian
ACHN renal = test system: ACHN renal
HOP-62 NSCLC = test system: HOP-62 NSCLC
SNB-75 CNS = test system: SNB-75 CNS
SK-MEL-28 melanoma = test system: SK-MEL-28 melanoma
HS 578T breast = test system: HS 578T breast
U251 CNS = test system: U251 CNS
A549 NSCLC = test system: A549 NSCLC
BT-549 breast = test system: BT-549 breast
NCI-H460 lung = test system: NCI-H460 lung
CAKI-1 renal = test system: CAKI-1 renal
OVCAR-4 ovarian = test system: OVCAR-4 ovarian
COLO 205 colon = test system: COLO 205 colon
SF-295 CNS = test system: SF-295 CNS
KM12 colon = test system: KM12 colon
OVCAR-3 ovarian = test system: OVCAR-3 ovarian
MOLT-4 leukemia = test system: MOLT-4 leukemia
SNB-19 CNS = test system: SNB-19 CNS
UACC-257 melanoma = test system: UACC-257 melanoma
IGROV1 ovarian = test system: IGROV1 ovarian
PC-3 prostate = test system: PC-3 prostate
RXF 393 renal = test system: RXF 393 renal
EKVX NSCLC = test system: EKVX NSCLC
SF-539 CNS = test system: SF-539 CNS
UACC-62 melanoma = test system: UACC-62 melanoma
SK-MEL-5 melanoma = test system: SK-MEL-5 melanoma
SK-OV-3 ovarian = test system: SK-OV-3 ovarian
RPMI-8226 leukemia = test system: RPMI-8226 leukemia
MDA-MB-435 = test system: MDA-MB-435
SN12C renal = test system: SN12C renal
UO-31 renal = test system: UO-31 renal
NCI-H226 lung = test system: NCI-H226 lung

## C#CC(=O)N(c1ccc(OC)cc1OC)C(C(=O)NCC(=O)OCC)c1cccs1 (stereo unspecified)
K-562 leukemia
  GI50: 0.594 µM
  TGI: 2.96 µM
NCI-H522 lung
  GI50: 0.0831 µM
  TGI: 0.258 µM
OVCAR-8 ovarian
  GI50: 0.97 µM
  TGI: 17.9 µM
T-47D breast
  GI50: 2.01 µM
  TGI: 5.1 µM
MCF7 breast
  GI50: 2.04 µM
  TGI: 9.1 µM
NCI-H23 lung
  GI50: 0.257 µM
  TGI: 1.07 µM
DU-145 prostate
  GI50: 0.436 µM
  TGI: 4.02 µM
MALME-3M melanoma
  GI50: 0.066 µM
  TGI: 0.164 µM
HOP-92 NSCLC
  GI50: 0.0313 µM
  TGI: 0.11 µM
MDA-MB-231 breast
  GI50: 0.173 µM
  TGI: 1.14 µM
HL-60(TB) leukemia
  GI50: 0.0187 µM
  TGI: 0.0387 µM
CCRF-CEM leukemia
  GI50: 0.0277 µM
  TGI: 0.081 µM
LOX IMVI melanoma
  GI50: < 0.0125 µM
  TGI: < 0.0185 µM
SR leukemia
  GI50: 0.022 µM
  TGI: 0.0528 µM
SK-MEL-2 melanoma
  GI50: 11 µM
  TGI: 26.2 µM
M14 melanoma
  GI50: 1.88 µM
  TGI: 4.54 µM
TK-10 renal
  GI50: 3.96 µM
  TGI: 10.7 µM
SW-620 colon
  GI50: 1.27 µM
  TGI: 3.05 µM
A498 renal
  GI50: 0.215 µM
  TGI: 0.541 µM
HCT-116 colon
  GI50: 1.58 µM
  TGI: 3.42 µM
SF-268 CNS
  GI50: 0.326 µM
  TGI: 1.17 µM
786-0 renal
  GI50: 0.0191 µM
  TGI: 0.0389 µM
NCI/ADR-RES ovarian
  GI50: 0.177 µM
  TGI: 0.813 µM
HCT-15 colon
  GI50: 0.759 µM
  TGI: 2.39 µM
HT29 colon
  GI50: 0.241 µM
  TGI: 0.61 µM
HCC-2998 colon
  GI50: 4.98 µM
  TGI: 17.7 µM
OVCAR-5 ovarian
  GI50: 0.574 µM
  TGI: 2.33 µM
ACHN renal
  GI50: 0.114 µM
  TGI: 1.25 µM
HOP-62 NSCLC
  GI50: 0.436 µM
  TGI: 2.28 µM
SNB-75 CNS
  GI50: 0.152 µM
  TGI: 0.399 µM
SK-MEL-28 melanoma
  GI50: 2.26 µM
  TGI: 6.03 µM
HS 578T breast
  GI50: 0.444 µM
  TGI: 3.26 µM
U251 CNS
  GI50: 0.445 µM
  TGI: 1.26 µM
A549 NSCLC
  GI50: 5.56 µM
  TGI: 31.7 µM
BT-549 breast
  GI50: 0.318 µM
  TGI: 1.19 µM
NCI-H460 lung
  GI50: 0.717 µM
  TGI: 6.84 µM
CAKI-1 renal
  GI50: 0.187 µM
  TGI: 0.901 µM
OVCAR-4 ovarian
  GI50: 1.75 µM
  TGI: 3.97 µM
COLO 205 colon
  GI50: 1.81 µM
  TGI: 3.74 µM
SF-295 CNS
  GI50: 0.183 µM
  TGI: 0.362 µM
KM12 colon
  GI50: 0.372 µM
  TGI: 2.24 µM
OVCAR-3 ovarian
  GI50: 0.16 µM
  TGI: 0.528 µM
MOLT-4 leukemia
  GI50: 0.375 µM
  TGI: 1.95 µM
SNB-19 CNS
  GI50: 2.42 µM
  TGI: 8.08 µM
UACC-257 melanoma
  GI50: 3.29 µM
  TGI: 13 µM
IGROV1 ovarian
  GI50: 0.03 µM
  TGI: 0.0979 µM
PC-3 prostate
  GI50: 0.871 µM
  TGI: 7.88 µM
RXF 393 renal
  GI50: 0.271 µM
  TGI: 1.01 µM
EKVX NSCLC
  GI50: 0.26 µM
  TGI: 1.32 µM
SF-539 CNS
  GI50: 0.0567 µM
  TGI: 0.11 µM
UACC-62 melanoma
  GI50: 1.47 µM
  TGI: 5.81 µM
SK-MEL-5 melanoma
  GI50: 8.82 µM
  TGI: 21.3 µM
SK-OV-3 ovarian
  GI50: 1.82 µM
  TGI: 3.4 µM
RPMI-8226 leukemia
  GI50: 0.0449 µM
  TGI: 0.193 µM
MDA-MB-435
  GI50: 3.8 µM
  TGI: 16.2 µM
SN12C renal
  GI50: 2.21 µM
  TGI: 16.5 µM
UO-31 renal
  GI50: 0.0167 µM
  TGI: 0.0339 µM
NCI-H226 lung
  GI50: 11.3 µM
  TGI: 38 µM
